Source: ChEMBL document CHEMBL5346971, “Discovery of the First Irreversible HDAC6 Isoform Selective Inhibitor with Potent Anti-Multiple Myeloma Activity” (J Med Chem, 2023)
The source made the active and inactive calls. The rule behind the calls is not given here.

How the values were obtained:
RPMI-8226 [1] = assay: Induction of apoptosis in human RPMI-8226 cells assessed as proportion of necrotic cells at 0.1 uM incubated for 24 hrs by AnnexinV-FITC/PI staining based flow cytometry (reference value: 0.49%); format: functional, cell-based
[2] = target: T1, Class 1 histone deacetylase (Homo sapiens) (UniProt Q13547+O15379+Q92769+Q9BY41); assay: Irreversible inhibition of class 1 HDAC in human A549 cells assessed as acetyl histone H3 level at 0.4 uM incubated for 5 hrs followed by drug wash-out for 6 hrs by western blot analysis relative to control; format: cell-based
[3] = Effect on HDAC6 protein expression in human A549 cells assessed as change in HDAC6 protein expression at 0.4 uM incubated for 5 hrs followed by drug wash-out and measured following drug wash-out by western blot analysis relative to control; format: functional
[4] = target: T1, Class 1 histone deacetylase (Homo sapiens); assay: Irreversible inhibition of class 1 HDAC in human A549 cells assessed as acetyl histone H4 level at 0.4 uM incubated for 5 hrs followed by drug wash-out for 6 hrs by western blot analysis relative to control; format: cell-based
[5] = target: T1, Class 1 histone deacetylase (Homo sapiens); assay: Irreversible inhibition of class 1 HDAC in human A549 cells assessed as acetyl histone H4 level at 0.4 uM incubated for 5 hrs followed by drug wash-out for 1 hr by western blot analysis relative to control; format: cell-based
[6] = Effect on HDAC6 protein expression in human A549 cells assessed as change in HDAC6 protein expression at 0.4 uM incubated for 5 hrs followed by drug wash-out for 1 hr by western blot analysis relative to control; format: functional
RPMI-8226 [7] = assay: Induction of apoptosis in human RPMI-8226 cells assessed as proportion of viable cells at 0.5 uM incubated for 24 hrs by AnnexinV-FITC/PI staining based flow cytometry (reference value: 84.71%); format: functional, cell-based
[8] = target: T2, Protein deacetylase HDAC6 (Homo sapiens) (UniProt Q9UBN7); assay: Irreversible inhibition of HDAC6 in human A549 cells assessed as acetyl alpha-tubulin level at 0.4 uM incubated for 5 hrs followed by drug wash-out for 6 hrs by western blot analysis relative to control; format: cell-based
T2 sequence (whole entry): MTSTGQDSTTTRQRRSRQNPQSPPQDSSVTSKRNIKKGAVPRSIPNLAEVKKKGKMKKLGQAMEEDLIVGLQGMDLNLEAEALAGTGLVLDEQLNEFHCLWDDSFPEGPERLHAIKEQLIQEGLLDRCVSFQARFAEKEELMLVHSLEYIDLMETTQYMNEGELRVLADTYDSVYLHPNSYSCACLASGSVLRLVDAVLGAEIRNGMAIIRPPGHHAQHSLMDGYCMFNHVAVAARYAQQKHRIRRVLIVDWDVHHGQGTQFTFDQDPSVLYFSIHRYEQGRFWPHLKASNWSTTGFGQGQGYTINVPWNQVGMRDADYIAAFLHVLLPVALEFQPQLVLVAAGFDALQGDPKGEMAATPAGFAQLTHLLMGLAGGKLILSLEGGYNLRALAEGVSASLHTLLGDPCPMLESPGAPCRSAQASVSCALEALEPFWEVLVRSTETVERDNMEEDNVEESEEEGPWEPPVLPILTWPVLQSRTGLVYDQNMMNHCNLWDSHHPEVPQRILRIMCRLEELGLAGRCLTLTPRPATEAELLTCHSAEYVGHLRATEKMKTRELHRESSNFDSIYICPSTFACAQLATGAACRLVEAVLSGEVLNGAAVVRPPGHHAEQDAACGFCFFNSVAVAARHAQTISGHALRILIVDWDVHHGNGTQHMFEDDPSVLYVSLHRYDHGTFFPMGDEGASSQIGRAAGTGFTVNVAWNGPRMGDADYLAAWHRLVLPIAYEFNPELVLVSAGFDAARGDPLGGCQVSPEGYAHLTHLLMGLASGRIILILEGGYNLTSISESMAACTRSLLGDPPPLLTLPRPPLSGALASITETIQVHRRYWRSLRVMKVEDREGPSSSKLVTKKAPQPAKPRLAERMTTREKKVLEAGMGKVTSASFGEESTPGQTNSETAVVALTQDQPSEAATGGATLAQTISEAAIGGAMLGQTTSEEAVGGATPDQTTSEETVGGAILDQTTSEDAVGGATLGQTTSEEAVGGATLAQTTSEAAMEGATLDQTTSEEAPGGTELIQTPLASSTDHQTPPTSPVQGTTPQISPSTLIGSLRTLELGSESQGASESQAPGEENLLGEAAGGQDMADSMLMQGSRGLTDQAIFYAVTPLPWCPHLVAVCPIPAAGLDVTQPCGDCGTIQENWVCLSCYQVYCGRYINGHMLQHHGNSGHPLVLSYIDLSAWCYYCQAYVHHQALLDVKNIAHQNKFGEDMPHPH

[9] = Effect on HDAC6 protein expression in human A549 cells assessed as change in HDAC6 protein expression at 0.4 uM incubated for 5 hrs followed by drug wash-out for 6 hrs by western blot analysis relative to control; format: functional
RPMI-8226 [10] = assay: Induction of apoptosis in human RPMI-8226 cells assessed as proportion of early apoptotic cells at 0.1 uM incubated for 24 hrs by AnnexinV-FITC/PI staining based flow cytometry (reference value: 10.63%); format: functional, cell-based
Histone deacetylase 8 = target: T3, Histone deacetylase 8 (Homo sapiens, UniProt Q9BY41); assay: Inhibition of C-terminal His-tagged human full length recombinant HDAC8 (1 to 377 residues) expressed in Sf9 cells using Boc-Lys(trifluoroacety1)-AMC as substrate preincubated with enzyme for 1 hr followed by substrate addition and measured after 30 mins by fluorescence based analysis
T3 sequence (Q9BY41 whole entry): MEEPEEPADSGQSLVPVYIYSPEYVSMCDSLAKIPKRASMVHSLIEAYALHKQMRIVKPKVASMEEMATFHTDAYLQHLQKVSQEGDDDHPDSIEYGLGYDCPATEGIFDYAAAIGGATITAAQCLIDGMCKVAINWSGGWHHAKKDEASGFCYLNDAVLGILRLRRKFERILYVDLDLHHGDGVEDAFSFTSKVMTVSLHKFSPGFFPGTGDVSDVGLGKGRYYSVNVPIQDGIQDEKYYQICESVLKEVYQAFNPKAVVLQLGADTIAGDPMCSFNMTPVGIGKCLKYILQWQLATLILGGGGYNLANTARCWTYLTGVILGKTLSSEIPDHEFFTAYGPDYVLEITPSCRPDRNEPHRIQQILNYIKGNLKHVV

[11] = Toxicity in NCG mouse xenografted with human RPMI-8226 cells assessed as body weight loss at 10 ug administered intratumorally every 2 days; conditions: in vivo, other, 48 h, route it(Intratumoral), dose 10 µg
RPMI-8226 [12] = assay: Antitumor activity against human RPMI-8226 cells xenografted in NCG mouse assessed as T/C ratio at 10 ug administered intratumorally every 2 days by vernier caliper analysis; format: functional; conditions: dose 10 µg; route it(Intratumoral)
RPMI-8226 [13] = assay: Induction of apoptosis in human RPMI-8226 cells incubated for 24 hrs by AnnexinV-FITC/PI staining based flow cytometry; format: functional, cell-based; conditions: dose 0.1-0.5 µM
[14] = target: T2, Protein deacetylase HDAC6 (Homo sapiens); assay: Inhibition of HDAC6 in human A549 cells assessed as acetyl alpha-tubulin level at 2 uM incubated for 5 hrs by western blot analysis relative to control; format: cell-based

T1 sequence (O15379 whole entry, looked up, one chain of several): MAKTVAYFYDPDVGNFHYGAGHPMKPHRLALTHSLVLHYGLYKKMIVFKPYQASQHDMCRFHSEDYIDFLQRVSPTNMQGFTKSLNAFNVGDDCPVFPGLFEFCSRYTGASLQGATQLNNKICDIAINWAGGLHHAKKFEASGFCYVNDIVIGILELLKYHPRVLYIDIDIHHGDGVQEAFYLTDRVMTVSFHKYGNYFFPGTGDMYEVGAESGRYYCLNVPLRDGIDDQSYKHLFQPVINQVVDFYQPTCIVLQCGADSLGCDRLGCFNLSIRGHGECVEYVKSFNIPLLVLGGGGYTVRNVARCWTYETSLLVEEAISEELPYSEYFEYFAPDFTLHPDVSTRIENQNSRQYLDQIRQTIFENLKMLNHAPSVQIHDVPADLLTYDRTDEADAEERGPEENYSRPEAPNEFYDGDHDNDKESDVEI
T1 sequence (Q13547 whole entry, looked up, one chain of several): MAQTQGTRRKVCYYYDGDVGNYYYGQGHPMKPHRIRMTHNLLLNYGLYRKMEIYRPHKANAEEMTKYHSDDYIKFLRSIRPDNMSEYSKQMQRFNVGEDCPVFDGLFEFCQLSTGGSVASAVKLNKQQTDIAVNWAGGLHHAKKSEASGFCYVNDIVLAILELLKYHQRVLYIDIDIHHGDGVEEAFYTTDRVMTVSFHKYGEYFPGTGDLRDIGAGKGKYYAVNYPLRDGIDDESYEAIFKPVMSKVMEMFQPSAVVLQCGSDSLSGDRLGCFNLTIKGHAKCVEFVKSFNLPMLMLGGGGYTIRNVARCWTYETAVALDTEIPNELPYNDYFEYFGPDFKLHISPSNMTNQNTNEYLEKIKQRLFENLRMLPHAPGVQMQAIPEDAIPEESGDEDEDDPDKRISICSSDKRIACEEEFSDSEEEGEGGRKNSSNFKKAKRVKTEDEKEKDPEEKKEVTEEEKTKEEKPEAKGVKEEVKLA
T1 sequence (Q92769 whole entry, looked up, one chain of several): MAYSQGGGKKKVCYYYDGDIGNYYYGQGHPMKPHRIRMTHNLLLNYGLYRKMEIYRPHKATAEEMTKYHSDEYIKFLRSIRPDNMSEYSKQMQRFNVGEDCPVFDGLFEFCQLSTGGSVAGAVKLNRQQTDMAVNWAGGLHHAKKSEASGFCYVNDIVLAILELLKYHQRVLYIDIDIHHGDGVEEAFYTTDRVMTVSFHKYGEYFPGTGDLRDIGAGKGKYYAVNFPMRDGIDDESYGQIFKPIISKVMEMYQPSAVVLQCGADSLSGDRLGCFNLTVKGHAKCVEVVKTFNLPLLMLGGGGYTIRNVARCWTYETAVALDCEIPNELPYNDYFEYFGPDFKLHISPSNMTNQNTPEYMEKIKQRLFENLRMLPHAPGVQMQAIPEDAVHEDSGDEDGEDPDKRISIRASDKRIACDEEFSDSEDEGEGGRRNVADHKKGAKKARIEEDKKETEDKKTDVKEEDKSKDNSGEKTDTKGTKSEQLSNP

fold change (FC) [2]: 1.1 | fold change (FC) [4]: 1 | fold change (FC) [5]: 1.2 | fold change (FC) [8]: 5.1 | IC50 (Histone deacetylase 8): 2100 nM | fold change (FC) [14]: 4.3
SMILES: O=C(NO)c1ccc(COc2no[n+]([O-])c2S(=O)(=O)c2ccccc2)cc1
Activity (RPMI-8226 [1]): Active | fold change (FC) [3]: 1 | fold change (FC) [6]: 1.2 | Activity (RPMI-8226 [7]): Active | fold change (FC) [9]: 1.1 | Activity (RPMI-8226 [10]): Active | Activity [11]: Non-Toxic | T/C (RPMI-8226 [12]): 55% | Activity (RPMI-8226 [13]): Dose-Dependent Effect
